Laboratory results: patent publication US7129271B2, “Compounds for pest control and methods for their use” (The United States of America as represented by the …, priority 2000, dated 2006)
In brackets after ≈: the same amount, converted by molar mass. Read-outs that look alike come from different tables or passages of the source.

Legend:
[1] = system: I. scapularis nymphs, X. cheopis adults, and Ae. aegypti adults; test: Initial screening against all three arthropods (Example 9); format: in vivo; settings: 24 hours exposure; ticks, fleas, mosquitoes
Experimental: Valencene-13-aldehyde was prepared by oxidation of valencene with SeO2. […] Commercial samples of nootkatone for comparison were obtained from Bedoukian Research, Inc., Danbury, Conn. (semi-synthetic crystalline) and Frutarom, Inc. N.J. (from grapefruit oil). […] The compounds identified by an asterisk—nos.

[2] = system: ticks, fleas, and mosquitos; test: Bioassay of Example 2 on ticks, fleas and mosquitos (Examples 4 and 6); format: in vivo
Experimental: (§1) Samples of the compounds listed below Were obtained from Dr. Karchesy, a co-inventor, and screened for biocidal activities against nymphal Ixodes scapularis. In this example, 2% acetone solutions (wt./vol.) of the compounds were applied to inner surfaces of 2-dram friction cap vials. Vials and caps were treated then allowed to dry for a minimum of 4 hours before placing 10 nymphs in each container. These same vials were used to challenge additional nymphs and adult I. scapularis ticks and adult Xenopsylla cheopis fleas through five weeks to observe any possible residual activity.
Nootkatol was tested using the bioassay presented in Example 2.
Two nootkatone samples were compared to nootkatone isolated from Alaska yellow cedar using the method presented in Example 1. The first sample was a natural extract of nootkatone taken from grapefruit oil purchased commercially. The second sample was a synthetically produced nootkatone purchased commercially.
Both samples were compared to the nootkatone originating from Alaska yellow cedar in terms of their biocidal activities. Using a bioassay method similar to that presented in Example 2, no differences were discernible among the nootkatone samples in terms of their biocidal effect on ticks, fleas and mosquitos.

[3] = system: I. scapularis nymphs; test: Tick bioassay, modified disposable pipette method, treated vials (Example 9); format: in vivo, Ixodes scapularis; settings: 24 h exposure, 95% CI in parentheses
Experimental: Tick Colonies. […] There was no known pesticide used at this location. Ticks were maintained at 21° C., 90% RH, and received a 16:8 h (light:dark) cycle as described in […]. Med. […] Tick and Flea Bioassays. […] A control treated with acetone only was run with each series. Tick and flea susceptibility was evaluated using a modified disposable pipette method. See, Barnard, D. R., et al., J. Econ. […] Three to 4 holes were made in the plastic cap to allow for air exchange. Nymphal ticks and adult fleas were then placed directly into the vials using forceps. Vials containing ticks or fleas were placed in desiccators for 24 h at 21° C. and 90% RH. […] For each time point, if ticks were incapable of movement, maintaining normal posture, leg coordination, ability to right themselves, or any signs of life, they were considered moribund or dead.

[4] = system: X. cheopis adults; test: Flea bioassay, treated vials (Example 9); format: in vivo; settings: 24 h exposure, 95% CI in parentheses
Experimental: Flea Colonies. Adult X. cheopis fleas (1–3 wk old) were obtained from a colony founded more than eight years ago using adults received from Tom Schwan, Rocky Mountain Laboratories, Hamilton, Mont. The area from which these original adult fleas were obtained, and the resulting colony, have no known histories of pesticide exposure.
Tick and Flea Bioassays. Concentrations of the compounds were prepared by 2-fold serial dilutions of a 0.5% (wt:vol) solution of the extracts in acetone. […] A control treated with acetone only was run with each series. Tick and flea susceptibility was evaluated using a modified disposable pipette method. See, Barnard, D. R., et al., J. Econ. Entomol.
The inner surface of 2-dram friction cap vials were treated with the compound/acetone solution, or acetone only as a control, and left to air-dry overnight. Three to 4 holes were made in the plastic cap to allow for air exchange. Nymphal ticks and adult fleas were then placed directly into the vials using forceps. Vials containing ticks or fleas were placed in desiccators for 24 h at 21° C. and 90% RH. Morbidity and mortality was recorded at 1, 2, 4, 8, and 24 h after initial exposure.

[5] = system: Ae. aegypti adults; test: Mosquito bottle bioassay (Example 9); format: in vivo; settings: 24 h exposure, 95% CI in parentheses
Experimental: Mosquito Colonies. Aedes aegypti adult mosquitoes were obtained from an existing colony at the Centers for Disease Control and Prevention (CDC), Division of Vector-Borne Infectious Diseases (DVBID), Fort Collins, Colo. This colony has been maintained for over fifteen years with no known history of exposure to pesticides. Mosquitoes were reared at 28° C., 85% RH, and a 14:10 h (light:dark) cycle. Larvae were grown in de-ionized water and fed ground liver powder solution ad libitum. Fourth instars were removed and placed in emergence cages, and adults were fed a 2% sucrose solution until assayed. Adults were exposed to test products at 4–7 d after emergence.
Mosquit Bioassay. Adult mosquitoes were tested using the bottle bioassay method of Brogden, W. G., and McAllister, J. C., J. Am. Mosq. Control Assoc. 14:159–64 (1998), with minor modifications. Natural product extracts were two-fold serially diluted for a total of 8 concentrations ranging from 0.002% to 0.25% in 1.5 ml of acetone. Individual dilutions were added to 250 ml Wheaton glass bottles and capped. Bottles were manipulated to evenly coat all inner surfaces. The caps were removed and bottles were allowed to air-dry overnight. Once bottles were completely dry, 10–50 adult mosquitoes were aspirated into the bottles. Mosquitoes were held in the bottles for 24 h at 23° C. and 85% RH. Morbidity and mortality were recorded at 15, 30, 45, and 60 min and 24 hour intervals. One bottle for each replicate was treated with acetone only and served as a control. The dose-mortality data was evaluated with probit analysis, using the LdP Line software, to determine LC50 and LC90 values.

[6] = system: nymphal Ixodes scapularis; test: Treated-vial biocidal screening, 2% acetone solutions (Example 2); format: in vivo; settings: for I. scapularis nymphs (24 h), number killed/number tested: 2% acetone solution (wt./vol.) dried in vials; for I. scapularis nymphs (72 h), number killed/number tested: treated vials sat 72 h, arthropods added for final 24 h
Experimental: as §1
(§2) Numbers in parentheses refer to length of treatment in terms of hours (h) or weeks (wk). Data is presented in terms of number killed/number tested. For test periods longer than 24 hours, the treated vials were allowed to sit for the stated period after drying (72 h, 4 wk, or 5 wk) and each group of arthropods was added to the vials for the final 24 h of the test period.

[7] = system: adult I. scapularis ticks; test: Treated-vial biocidal screening, residual challenge (Example 2); format: in vivo, Ixodes scapularis; settings: treated vials sat 4 wk; arthropods added for final 24 h
Experimental: as §1, §2

[8] = system: adult Xenopsylla cheopis fleas; test: as above; format: in vivo; settings: treated vials sat 5 wk; arthropods added for final 24 h
Experimental: as §1, §2

[9] = system: ticks, fleas, formicids and termites; test: Persistence of biocidal activity, vials treated with 2% solutions (Example 5); format: in vivo
Experimental: as §1
Persistence of biocidal activity was determined for nootkatone and valencene-11,12-epoxide by using the vials as treated with the 2% solutions of Example 2. […] At 11 weeks, the biocidal activity began to dissipate below the 100% mortality level.

[10] = system: nymphal I. scapularis; test: Baseline dose-mortality, method of Maupin and Piesman 1994 (Example 7); format: in vivo; settings: nymphal ticks
From the text: Baseline dose-mortalities were established for nymphal I. scapularis for nootkatone and valencene-11,12-epoxide using the method described in Maupin, G. O., and Piesman, J., J. Med. Entomol., 31:319–21 (1994).
A comparison of relative potency was made with published data for carbaryl and permethrin (Maupin and Piesman, 1994) and Alaska yellow cedar essential oil (Panella et al., J. Med. Entomol. 34:340–45 (1997) is presented in Table 6.

[11] = system: Culex p. pipiens; test: Mosquito susceptibility, serial dilutions (Example 8); settings: in vivo
[12] = system: Aedes aegypti; test: Mosquito susceptibility (Example 8); settings: in vivo
[13] = system: Aedes aegypti adults; test: Treated-vial bioassay on mosquito (Example 3); format: in vivo; settings: 24 hours challenge
Experimental: as §1
Using a bioassay method similar to that presented in Example #2, the susceptibility of Aedes aegypti adults to the five compounds presented in Example #2 at 24 hours challenge was determined to be 100% mortality except for nootkatin (20% mortality).

CC1=CCC2C(C1)C2(C)C (centres unmarked) [Compound 1, 3-Carene]
pesticidal activity in initial screening [1]: no pesticidal activity

C=C(C)[C@@H]1CCC2=C[C@@H](O)C[C@@H](C)[C@]2(C)C1 [Compound 12, Nootkatol]
biocidal activity compared with nootkatene [2]: essentially equivalent to the activity of nootkatene | LC50 [3]: 0.023 (0.017–0.03) percent concentration, wt:vol | LC90 [3]: 0.059 (0.042–0.116) percent concentration, wt:vol | LC50 ([3]; listed as compound 12): 0.023 percent concentration, wt:vol | LC50 [4]: 0.024 (0.018–0.034) percent concentration, wt:vol | LC90 [4]: 0.1 (0.065–0.196) percent concentration, wt:vol | LC50 ([4]; listed as compound 12): 0.024 percent concentration, wt:vol | LC50 [5]: 0.004 (0.0032–0.0048) percent concentration, wt:vol | LC90 [5]: 0.01 (0.008–0.014) percent concentration, wt:vol | LC50 ([5]; listed as compound 12): 0.004 percent concentration, wt:vol

C[C@@H]1CCC=C2CCC(C3(C)CO3)C[C@]21C (some centres unmarked) [Compound 13, valencene-11,12-epoxide]
I. scapularis nymphs (24 h), number killed/number tested [6]: 10/10 | I. scapularis nymphs (72 h), number killed/number tested [6]: 5/5 | I. scapularis adults (4 wk), number killed/number tested [7]: 5/5 | X. cheopis adults (5 wk), number killed/number tested [8]: 5/5 | mortality ([9]; 24 hour exposure at each test through 10 weeks, each group of arthropods): 100% | time at which biocidal activity began to dissipate below the 100% mortality level ([9]; vials treated with 2% solutions): 11 weeks | more effective than essential oil of Alaska yellow cedar [10]: about 98% | potency relative to essential oil of Alaska yellow cedar [10]: approximately 50 times | C. pipiens LD50 [11]: <4.5 × 10^−3 | mortality rate at the lowest tested dosage [11]: 64% | A. aegypti LD50 [12]: <4.5 × 10^−3 | LC50 ([5]; Aedes aegypti, 24 h, read-out: LC50): 2.95 mg/mL (≈ 13.4 mM) | EC90 ([5]; Aedes aegypti, 24 h, read-out: LC90 (the source's name)): 19.1 mg/mL (≈ 86.7 mM)

CC1=CCC(O)(C(C)C)CC1 (centres unmarked) [Compound 2, Terpinen-4-ol]
pesticidal activity in initial screening [1]: no pesticidal activity

CC(C)=CCc1ccc(O)c(=O)cc1C(C)C [Compound 11, Nootkatin]
I. scapularis nymphs (24 h), number killed/number tested [6]: 1/10 | I. scapularis nymphs (72 h), number killed/number tested [6]: 0/5 | I. scapularis adults (4 wk), number killed/number tested [7]: 0/5 | X. cheopis adults (5 wk), number killed/number tested [8]: 0/5 | mortality [13]: 20% | LC50 [5]: 0.852 percent concentration, wt:vol | LC90 [5]: 7.869 percent concentration, wt:vol
